In experiment [1] the target is T1, human mGluR5a receptor (Homo sapiens, UniProt P41594). The experiment is described as follows: Automated fluorescence assay (fluo-3) in transiently transfected HEK 293 cells. The experiment is classed as cell-based. More on the design: expressed in transfected cells; host or cells: HEK 293 cells, transient CaPO4 transfection. As to the method:
HEK 293 cells were transiently transfected with DNA encoding mGluR5a (constructs mGluR5a2 and mGluR5a3 and construct MMTV-hmGluR5a) receptors. Approximately 2×10^6 HEK cells were transiently transfected with 5-18 μg (or 0.18 μg in some transfections, see Example 3.C.2.) of the indicated plasmid according to standard CaPO4 transfection procedures [see Wigler et al. (1979) Proc. Natl. Acad. Sci. USA 76:1373-1376]. In addition, 0.5-2 μg (or 0.18 μg in some transfections, see Example 3.C.2) of plasmid pCMVβgal (Clontech Laboratories, Palo Alto, Calif.), which contains the Escherichia coli β-galactosidase gene fused to the CMV promoter, were co-transfected as a reporter gene for monitoring the efficiency of transfection. The transfectants were analyzed for β-galactosidase expression by direct staining of the product of a reaction involving β-galactosidase and the X-gal substrate [Jones (1986) EMBO 5:3133-3142]. Transfectants can also be analyzed for β-galactosidase expression by measurement of β-galactosidase activity [Miller (1972) in Experiments in Molecular Genetics, pp.352-355, Cold Spring Harbor Press].
HEK 293 cells that were transiently transfected with 5 μg of MMTV-hmGluR5A were co-transfected with 5 μg of pRShGR (ATCC accession no. 67200) which contains DNA encoding a glucocorticoid receptor operatively linked to the Rous Sarcoma virus (RSV) LTR promoter. Co-expression of glucocorticoid receptors in these cells should insure that induction of expression of the MMTV promoter-mGluR5a DNA occurs upon addition of glucocorticoid (e.g., dexamethasone) to the cells.
Untransfected HEK 293 cells (or HEK 293 cells transiently transfected with pCMV-T7-3) and HEK 293 cells that had been transfected with mGluR5a-encoding DNA were plated in the wells of a 96-well microtiter dish (Nunc Catalog No. 1-6708, distributed by Alameda Industries, Escondido, Calif.) that had been precoated with poly-L-lysine at a density of 2×10^5 cells/well and loaded with fluo-3 by incubation for 2 hours at 20° C. in a medium containing 20 μM fluo-3, 0.2% Pluronic F-127 in HBS (125 mM NaCl, 5 mM KCl, 1.8 mM CaCl2, 0.62 MM MgCl2, 20 mM glucose, 20 mM HEPES, pH 7.4). The cells were then washed with assay buffer (i.e. HBS). The microtiter dish was then placed into a fluorescence plate reader (e.g., Fluoroskan II, Lab Products International, Ltd., Raleigh, N.C.), and the basal fluorescence of each well was measured and recorded before addition of metabotropic receptor-modulating compounds such as quisqualate, glutamate, trans-ACPD (1-amino-cyclopentane-1,3-dicarboxylic acid), 1S,3R-ACPD, AP3 (2-amino-3-phosphonopropionate) AP5 (2-amino-5-phosphonopentanoate), and CNQX (6-cyano-7-nitroquinoxaline-2,3-dione) to the wells. The fluorescence of the wells was monitored repeatedly (75 readings at 0.63-sec intervals) following addition of agonist.

Experiment [2] deals with T1, human mGluR5a receptor. The experiment in a line: Phosphatidylinositol hydrolysis (IP1) assay in HEK 293 cells transiently transfected with mGluR5a3. More on the design: expressed in transfected cells; host or cells: HEK 293 cells, transient CaPO4 transfection. It is filed as cell-based. Here is the method:
HEK 293 cells that had been transiently transfected with mGluR5a3 were plated in 24-well microtiter plates at a density of 8×10^5 cells/well. After the cells were allowed to settle and adhere to the bottom of the plate for a few hours, 2 μCi of [^3H]-myo-inositol (Amersham catalog # PT6-271, Arlington Heights, Ill.; specific activity=17.7 Ci/mmol) was added to each well and incubated overnight at 37° C. The next day, the cells were examined under a Nikon Diaphot inverted microscope to assess the health of the cells morphologically as well as to determine if the wells contained a confluent layer of cells. Media was then aspirated and the cells were washed twice with 0.5 ml Krebs bicarbonate buffer [117.9 mM NaCl, 4.72 mM KCl, 2.54 mM CaCl2, 1.18 mM MgSO4, 1.19 mM KH2PO4, 25 mM NaHCO3, 11.1 mM dextrose (equilibrated with 95% O2, 5% CO2, pH 7.4)]. The cells were incubated for 45 min. at room temperature. The buffer was then aspirated from each well and the cells were washed and incubated in 0.5 ml/well for 45 min at room temperature. The buffer was aspirated from each well, and the cells were then incubated for 20 min at 37° C. with 450 μl Krebs-bicarbonate buffer containing 10 mM LiCl instead of 10 mM NaCl (to block hydrolysis of IP1 to inositol and inorganic phosphate) and 10 mM unlabeled myo-inositol.
To begin treatment of the cells with metabotropic receptor-modulating compounds, 50 μl of Krebs-bicarbonate buffer (control) or 10× the final concentration of the compound was added to each well and the incubation was continued for 40 min. Incubation was terminated by addition of 1 ml ice-cold methanol to each well.
In order to isolate IP1 from the cells, the cells were removed from the plates by scraping with plastic pipette tips, and the cell suspension was transferred to 12×75 mm glass tubes. The tubes were thoroughly vortexed, and a 150-μl aliquot, i.e., one-tenth of the total volume, of each reaction mixture was transferred to another tube for protein determination. The water-soluble inositol phosphates were separated from the radiolabelled membrane phospholipids by extraction in 1 ml chloroform. The tubes were incubated at room temperature for 30 min before centrifugation at 500×g for 5 min at 4° C. The aqueous (top) layer containing the [^3H]-inositol phosphates was transferred to 10-ml syringes connected to Accell QMA SEP-PAK columns (Millipore; Calif.), which were attached to an Amersham Superseparator apparatus that was modified to allow collection into 20-ml scintillation vials. Water (10 ml) was added to the cartridge to remove [^3H]-inositol precursor, followed by 4 ml 0.02 M triethylammonium hydrogen carbonated buffer (TEAB, Fluka; N.Y.). To separately remove [^3H]-IP1, [^3H]-IP2 and [^3H]-IP3 from the cartridge, 4 ml of 0.1 M TEAB, 4 ml of 0.3 M TEAB and 4 ml of 0.4 M TEAB were sequentially added to the cartridge and the separate eluate fractions were collected in large scintillation vials. Ecolume cocktail (15 ml; ICN; California) was added to each vial for subsequent scintillation counting to determine the amount of each IP in the separate fractions. Protein concentration was determined using the Bio-Rad Protein Micro-Assay (Bio-Rad, Richmond, Calif.).

The mark [3] stands for this setting: HEK 293 transiently transfected with mGluR5a3 or MMTV-hmGluR5a, fluo-3.
Setting [4] is: cells transfected with mGluR5a3, varying amounts of compound.
Setting [5] is: 1 mM, HEK 293 transfected with 0.18 μg of mGluR5a3.
Where [6] appears, read: varying amounts of compound, cells transfected with mGluR5a3.

Read-outs that look alike come from different tables or passages of the source.

T1 sequence (P41594 21-1180 isoform P41594-2 limits assumed): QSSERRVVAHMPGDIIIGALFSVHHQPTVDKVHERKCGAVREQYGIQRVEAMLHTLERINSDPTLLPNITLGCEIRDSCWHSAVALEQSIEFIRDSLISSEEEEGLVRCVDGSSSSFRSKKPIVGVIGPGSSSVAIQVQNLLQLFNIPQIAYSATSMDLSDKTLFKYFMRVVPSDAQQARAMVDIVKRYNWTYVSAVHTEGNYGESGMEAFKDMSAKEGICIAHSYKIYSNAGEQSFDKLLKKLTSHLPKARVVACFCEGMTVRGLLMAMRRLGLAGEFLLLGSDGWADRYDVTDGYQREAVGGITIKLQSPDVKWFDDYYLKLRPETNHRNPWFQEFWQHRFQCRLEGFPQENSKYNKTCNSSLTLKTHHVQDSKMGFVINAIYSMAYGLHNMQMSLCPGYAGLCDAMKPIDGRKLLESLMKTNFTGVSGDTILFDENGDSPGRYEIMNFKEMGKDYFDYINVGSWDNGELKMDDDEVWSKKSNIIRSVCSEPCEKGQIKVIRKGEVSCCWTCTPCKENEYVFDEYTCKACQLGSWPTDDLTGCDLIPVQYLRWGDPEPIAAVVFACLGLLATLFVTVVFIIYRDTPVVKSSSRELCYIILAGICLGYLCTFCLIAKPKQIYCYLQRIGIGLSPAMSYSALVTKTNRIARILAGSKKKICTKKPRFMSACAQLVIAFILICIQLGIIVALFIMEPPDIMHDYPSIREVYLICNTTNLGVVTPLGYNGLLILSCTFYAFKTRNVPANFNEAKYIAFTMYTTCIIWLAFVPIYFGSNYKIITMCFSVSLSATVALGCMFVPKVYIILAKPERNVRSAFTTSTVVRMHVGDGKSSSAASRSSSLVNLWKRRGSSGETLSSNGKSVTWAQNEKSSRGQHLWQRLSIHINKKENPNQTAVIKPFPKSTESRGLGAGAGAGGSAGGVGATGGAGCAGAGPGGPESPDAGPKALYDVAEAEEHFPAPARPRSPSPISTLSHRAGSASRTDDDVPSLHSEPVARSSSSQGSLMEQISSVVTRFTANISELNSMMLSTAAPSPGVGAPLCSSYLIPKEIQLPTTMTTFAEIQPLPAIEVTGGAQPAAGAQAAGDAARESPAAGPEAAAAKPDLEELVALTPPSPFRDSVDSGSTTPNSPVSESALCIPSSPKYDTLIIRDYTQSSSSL

As to `NC1(C(=O)O)CCC(C(=O)O)C1` (stereo not drawn) [1S,3R-ACPD, 1-amino-cyclopentyl-1,3-dicarboxylic acid], the “fluorescence change in response to application of compound” value (“fluorescence change … of compound” below) at human mGluR5a receptor [1] (setting [3]) is reported as “increased”. Besides, the “dose-response of peak fluorescence” value at human mGluR5a receptor [1] (setting [4]) is “magnitude of the peak fluorescence increased with increasing concentration”. Moreover, the “IP1 levels on treatment with compound” value at human mGluR5a receptor [2] (setting [5]) is given as “detectable increases in IP1 levels”. Moreover, the “dose-response of IP1 levels” value at human mGluR5a receptor [2] (setting [6]) is reported as “IP1 levels increased with increasing concentration”.

On to `N[C@@H](CCC(=O)O)C(=O)O` [glutamate], for which the “fluorescence change … of compound” value on human mGluR5a receptor [1] (setting [3]) is “increased”. In addition, the “dose-response of peak fluorescence” value at human mGluR5a receptor [1] (setting [4]) was “magnitude of the peak fluorescence increased with increasing concentration”. Besides, the “IP1 levels on treatment with compound” value on human mGluR5a receptor [2] (setting [5]) is “detectable increases in IP1 levels”. On human mGluR5a receptor [2] (setting [6]), the “dose-response of IP1 levels” value is reported as “IP1 levels increased with increasing concentration”.

As to `N[C@@H](Cn1oc(=O)[nH]c1=O)C(=O)O` [quisqualate], at human mGluR5a receptor [1], the “dose-response of peak fluorescence” value was “magnitude of the peak fluorescence increased with increasing concentration”, the “fluorescence change … of compound” value is on record as “increased” and the “fluorescence change in response to compound” value is reported as “increased”. Also, at human mGluR5a receptor [2], the “IP1 levels on treatment with compound” value was “detectable increases in IP1 levels” and the “dose-response of IP1 levels” value is given as “IP1 levels increased with increasing concentration”.

Source of the values: patent US6413764B1, “Human metabotropic glutamate receptors, nucleic acids encoding same and uses thereof” (Merck & Co., Inc., priority 1993, dated 2002).
